In data set [1] the target is T1, fibrillar Beta-Amyloid Protein (BAP 1-40) (Homo sapiens, UniProt P05067).
T1 construct: 25 μl BAP 1-40 (10 mg/ml, Biosource 03-138); purchased Biosource 03-138 (BAP 1-40); 03-243 (biotinylated BAP 1-40)
The data set is described as follows: Amyloid binding on SPA beads. Conditions: 180 minutes at room temperature, equimolar amounts, non-specific binding subtracted. On the procedure: The binding of Compound 1 (74 TBq/mmol) was determined compared to the ability of ^125I-beta amyloid protein 1-40 (^125I-BAP 1-40, Amersham Biosciences IM294)) to bind to amyloid 140 fibrils. Amyloid binding was essentially performed as follows.
Three fresh buffer stocks were prepared for experiments: Buffer 1, 50 mM HEPES/0.1 % Bovine Serum Albumin (BSA) pH 7.5; Buffer 2, 50 mM HEPES/0.1% BSA/400 μM ZnCl2 pH 7.5; Buffer 3, 50 mM HEPES/0.1% BSA/100 μM ZnCl2 pH 7.5.
Streptavidin coated scintillation proximity assay beads (SA-SPA beads, Amersham Biosciences) were used to immobilise fibrillar Beta-Amyloid Protein (BAP 1-40). Amyloid coated beads (SPA-BAP) were prepared by incubating 250 μl SA-SPA beads (100 mg/ml) with 250 μl Buffer 2, 425 μl Buffer 1, 50 μl biotinylated BAP 1-40 (0.5 mg/ml, Biosource 03-243), 25 μl BAP 1-40 (10 mg/ml, Biosource 03-138). Non-specific binding SPA beads (SPA-NSB) were prepared to assess the binding of compounds to SPA beads with no associated BAP 1-40 fibrils in the following incubation: 250 μl SA-SPA beads (100 mg/ml) with 250 μL Buffer 2,500 μl Buffer 1.
SPA-BAP and SPA-NSB incubations were left for 24 hours at room temperature and then spun 1.5 ml tubes (eppendorf, Merk, 306/0421/12) for 2 minutes at 1000×g. The supernatants were removed and the beads were washed twice by resuspending them in 1 ml Buffer 3 followed by centrifugation for 2 minutes at 1000×g. Finally, washed SPA-BAP and SPA-NSB beads were resuspended in 1 ml Buffer 3.
Amyloid binding of ^125I-BAP 1-40 and Compound 1 was performed in triplicate in 0.5 ml tubes (eppendorf, Merk, 306/0421/02) by adding 50 μl SPA-BAP beads to 25 μl Buffer 2 and 25 μl labelled compound (^125I-BAP 1-40 or Compound 1). Tubes were then incubated for 180 minutes at room temperature with shaking, followed by centrifugation for 2 minutes at 1000×g. The supernatants were removed and SPA-BAP pellet washed twice with 300 μl Buffer 3 containing 1% TWEEN-20 (Sigma, P7949). Non-specific binding for labelled compounds to the SPA beads was determined using incubations as described above but by substituting SPA-BAP beads with SPA-NSB beads. Radioactivity associated with the washed SPA bead pellets was then determined.
The affinity of labelled compounds for fibrillar BAP 1-40 was estimated by subtracting SPA-NSB associated counts from SPA-BAP associated counts. The binding of labelled compounds was then compared to ^125I-BAP binding, which was taken as being 100%.
In these experiments, ^125-BAP 1-40 or Compound 1 were added in equimolar amounts (between 1-5×10^−11 mmoles per incubation).

Data set [2] in a line: Brain Uptake Index (BUI) method. Particulars: carotid artery bolus, decapitated after 15 seconds, relative to 14C-Butanol. In kind it is in vivo. On the procedure:
BUI is calculated according to the following equation: [formula] BUI was performed on three animals from the same test solution for each experiment. Each compound was assayed in duplicate.

Data set [3] has as its system CACO-2 cells. The data set is described as follows: CACO-2 cell apparent permeability (Papp), BBB model. Particulars: CACO-2 monolayers in Transwells, 30 minutes at 37° C., donor to acceptor. On the procedure:
Culturing of CACO-2 cells and Determination of Apparent Permeability (Papp) Values:
The seeding of 12 mm Transwells was as follows for CACO-2. Flasks of confluent cultures were trypsinsed and cells were carefully resuspended, making sure there are no clumps or air bubbles. 1.5 ml of tissue culture medium was placed in the bottom (acceptor) chamber of the wells and 0.5 ml containing 2×10^5 cells in the Transwell (donor chamber) and placed in the incubator. The cells were routinely monitored for adequate trans epithelial electrical resistance (TEER) using an EndOhm Tissue resistance measurement chamber (WPI). The subsequent maintenance and feeding of the cells on the Transwells was as follows: when feeding the wells, the medium was removed from the acceptor chamber (basolateral side) and donor chamber (apical side) of the Transwells. The medium was aspirated off with a pipette connected to a vacuum pump, being careful not to touch the filter. 0.5 ml of growth medium was then placed into the donor chamber and 1.5 ml of growth medium was placed into the acceptor chamber.
When the TEER values of the CACO-2 cell monolayers in Transwells was around 500 Ωcm^2 (300-800 Ωcm^2 was considered acceptable) permeability experiments were performed in triplicate as follows. All culture media was removed and acceptor and donor chambers were rinsed twice with Eagles Balance Salt Solution (EBSS) (Gibco) at 37° C. 1.5 ml EBSS was added to the acceptor chamber and 0.5 ml EBSS containing radiolabelled compound was added to the donor chamber. Cultures in Transwells were then incubated for 30 minutes at 37° C. at 200 rpm using a Labnet Vortemp. After 30 minutes, 100 μl aliquot was taken from the donor chamber and 750 μl from the acceptor chamber. These aliquots were then counted for radioactivity. The remaining EBSS was removed from the acceptor and donor chambers and then the Transwell was thoroughly rinsed three times la with EBSS. Next, the Transwell membrane (and associated cells) was removed using a scalpel and the amount of radiolabel associated with it was determined.
Permeability of compounds were determined by calculating their Papp value: Papp=ΔQ/Δt.60.A.Co (cm/sec)
For orientation: Caco-2 monolayers are a common model of the intestinal barrier.

Where no end group is shown, it is not given here.

For orientation: Papp means a coefficient for how fast a substance crosses the barrier.

T1 sequence (P05067 672-711 limits assumed): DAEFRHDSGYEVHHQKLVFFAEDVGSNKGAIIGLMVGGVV

Regarding “^99mTc-Pn216-KKLVFF (BAP 15-20): ^99mTc-labelled BAP sequence responsible for the binding of BAP to itself”, the “Amyloid binding (% of 125I-BAP 1-40)” value in data set [1] was found to be 9%. ^14C-FDG [reference compound]: in data set [2], the “Mean BUI” value was 17.98.

As to `OCC(O)C(O)C(O)C(O)[14CH2]O` (stereo not shown) [^14C-mannitol], the Papp in data set [3] was determined as 3.63 ×10⁻⁶ cm/s.

For “^125I-KKLVFFA (BAP 15-21): ^125I-labelled BAP 15-21 sequence (Amersham Biosciences) (not fully specified (N-terminus); also: 125I label, site not given here)”, the “Amyloid binding (% of 125I-BAP 1-40)” value in data set [1] is given as 21%. The same measure, in the same setting: as for “^125I-BAP 1-40: ^125I-beta amyloid protein 1-40, Amersham Biosciences IM294; reference taken as 100% binding”, the figure is 100%.

Consider `O=C[C@H](O)[C@@H](O)[C@H](O)[C@H](O)CO` [^14C-Glucose, ^14C-glucose], for which the Papp in data set [3] stood at 57.9 ×10⁻⁶ cm/s. On the same count and under the same terms, as for `CN1C(=O)CN=C(c2ccccc2)c2cc(Cl)ccc21` [^14C-diazapam, ^14C-diazepam], the figure is 24.4 ×10⁻⁶ cm/s.
